“Also recorded” adds a separate entry of the source. One block for each molecule: values may come before it.
Experiments:
[1] = biological target: T1, AR (Homo sapiens, UniProt P10275); assay: AR agonism assay in MDA-MB-453 ARE-luc reporter cells in the presence of pomalidomide; format: cell-based; settings: MDA-MB-453 AR luciferase reporter, with pomalidomide
T1 sequence (P10275 1-920 Q868H): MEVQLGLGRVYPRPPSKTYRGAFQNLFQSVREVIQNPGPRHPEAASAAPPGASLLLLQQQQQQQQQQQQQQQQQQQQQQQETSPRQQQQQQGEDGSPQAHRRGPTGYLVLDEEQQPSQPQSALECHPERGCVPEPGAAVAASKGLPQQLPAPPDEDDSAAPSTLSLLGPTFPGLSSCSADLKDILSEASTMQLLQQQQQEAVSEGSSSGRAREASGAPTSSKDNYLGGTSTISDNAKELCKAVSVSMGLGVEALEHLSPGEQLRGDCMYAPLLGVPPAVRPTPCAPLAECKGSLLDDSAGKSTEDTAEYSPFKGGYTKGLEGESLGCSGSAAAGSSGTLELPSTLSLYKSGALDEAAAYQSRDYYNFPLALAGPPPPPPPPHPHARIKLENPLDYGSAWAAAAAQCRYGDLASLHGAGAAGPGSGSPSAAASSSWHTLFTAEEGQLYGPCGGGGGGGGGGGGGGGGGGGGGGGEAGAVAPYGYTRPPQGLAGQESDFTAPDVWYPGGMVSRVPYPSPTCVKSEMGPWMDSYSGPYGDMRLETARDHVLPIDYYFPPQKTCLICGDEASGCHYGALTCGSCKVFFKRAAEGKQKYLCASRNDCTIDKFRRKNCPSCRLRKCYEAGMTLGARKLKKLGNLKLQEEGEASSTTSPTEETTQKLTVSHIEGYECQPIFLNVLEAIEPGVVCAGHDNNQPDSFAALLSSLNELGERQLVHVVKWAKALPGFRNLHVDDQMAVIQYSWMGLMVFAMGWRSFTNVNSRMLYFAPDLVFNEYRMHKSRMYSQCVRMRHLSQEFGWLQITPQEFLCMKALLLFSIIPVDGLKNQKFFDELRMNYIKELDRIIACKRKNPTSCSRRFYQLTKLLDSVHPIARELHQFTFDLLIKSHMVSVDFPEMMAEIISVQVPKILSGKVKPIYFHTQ
Description: The AR Responsive Luciferase Reporter MDA-MB-453 Stable Cell Line (MDA-MB-453 ARE-luc) was utilized for the AR agonism assay. These cells constitutively express the firefly luciferase reporter gene under the control of the androgen receptor response element. MDA-MB-453 ARE-luc cells were cultured in RPMI media (Thermo Fisher Scientific) supplemented with 5% charcoal-Dextran treated fetal bovine serum and were maintained at 37° C. in a 5% CO2 incubator. On day 0, the cells were seeded in 96-well plates at a density of 5×10^6 cells per plate. To prevent serum androgen interference during the AR agonism assay, the cells were cultured in phenol-free RPMI media without FBS. On day 1, the cells were treated with the compounds to establish concentration-response curves (CRCs). The compounds were administered at a top concentration of 300 nM with half-log dilutions. The synthetic AR agonist R1881 served as a positive control, with a top concentration of 30 nM and half-log dilutions. E3 ligase inhibitor pomalidomide was included in each well alongside the compounds at a concentration tenfold higher than that of the treated compounds. On day 2, the culture medium was removed, and luminescence data were obtained using the Bright Glo Assay (Promega, Catalog No. E2620) with 50 μL of Bright Glo buffer per well. Luminescence signals were recorded using a plate reader, and the agonism effect was calculated as a percentage using the formula: Agonism effect (%)=(Luminescence signal of compound/Maximum signal of R1881 at 30 nM)*100.

[2] = tested on: polyQ-AR; assay: Myotube high content imaging of polyQ-AR in myotubes that overexpress polyQ-AR; format: cell-based, human
Description: Cells were maintained in skeletal growth medium (PromoCell #23160). Immortalized myoblasts harboring inducible human androgen receptor with 56 CAG repeats (hAR56Q) were constructed by lentiviral transduction with CMV-rtTA and TetO-AR56Q-T2A-Puromycin (Mamchaoui, K. et al. Skeletal Muscle 1, 34 (2011)).
On day 0, immortalized myoblasts with inducible polyQ-AR (described above in “Cell lines”) cells were seeded onto Geltrex-coated 96-well plates at a density of 4×10^6 cells per plate in myoblast basal media (Promocell C-23060) supplemented with 1% penicillin-streptomycin (Pen Strep) antibiotics. The plates were then incubated overnight at 37° C. in a 5% CO2 environment. Upon reaching 100% confluency (Day 1), the myoblast media were aspirated and replaced with myotube differentiation media (Promocell C-23061). The cells were cultured in this differentiation media for 6 days, with media changes occurring every three days.
On the sixth day of differentiation, the compounds and doxycycline ([…]) diluted in 100% dimethyl sulfoxide (DMSO) were added to the myotubes. The plate was then incubated for 24 hours at 37° C. in an incubator. On the following day (Day 7), the culture media was removed from the plates and replaced with 50 μL of 4% paraformaldehyde (PFA) prepared in 1× phosphate-buffered saline (PBS). The plates were incubated with PFA for 15 minutes, followed by three washes with PBS. Subsequently, the myotubes were permeabilized for 15 minutes using 0.5% Triton X-100 in 1×PBS and then blocked with 5% Bovine Serum Albumin (BSA) (Thermofisher, #37520) for one hour at room temperature. After blocking, the plates were incubated overnight at 4° C. with primary antibodies: a 1:100 diluted Androgen Receptor antibody (D6F11 Cell Signaling 5135S) and a 1:200 diluted Desmin antibody (Thermofisher, MA1-22150) in PBS containing 0.1% BSA. […] Degradation was quantified by determining the average intensity of AR within separate nuclear and cytoplasmic compartments in Desmin positive area (myotubes).

[3] = tested on: hepatocyte; assay: In vitro ADMET: hepatocyte toxicity; format: cell-based; settings: at 1 μM
[4] = biological target: hERG (Homo sapiens, UniProt Q12809); assay: In vitro ADMET: hERG inhibition
[5] = Oral bioavailability in non-human primates; format: in vivo
[6] = tested on: polyQ-AR; assay: Global proteomics in SBMA hiPSC-myotubes: polyQ-AR and specificity; format: cell-based, human; settings: 12 nM, SBMA hiPSC-myotubes
From the text: (§1) (FIG. 12A). […] (FIG. 12C).

[7] = biological target: T2, PDE6D (Homo sapiens, UniProt O43924); assay: Global proteomics / Western blot in SBMA hiPSC-myotubes: neosubstrate PDE6D; format: cell-based; settings: global proteomics, SBMA hiPSC-myotubes
T2 construct: endogenous in cells; host or cells: SBMA hiPSC-derived myotubes
From the text: as §1

[8] = tested on: polyQ-AR; assay: polyQ-AR degradation in SBMA patient hiPSC-derived myotubes, capillary immunoassay; format: cell-based, human; settings: concentration response
Description: Lysates for hiPSC-derived myotubes were prepared in lysis buffer ([…], 50 mM sodium chloride, 1% NP-40, 1% SDS) supplemented with Halt Protease Inhibitor (78437 Thermo Fisher Scientific), Benzonase, and MgCl2 (1 mM final concentration). The lysates were cleared by centrifugation at 4° C. and supernatants were quantified using the BIO-RAD DC protein assay (5000112 BIO-RAD). The AR and protein levels were quantified by an automated capillary immunoassay experiment (ProteinSimple). The AR and Myosin Protein levels were quantified and normalized to total protein.
Control and SBMA hiPSCs were differentiated into myotubes as previously described (Caron, L. et al. 2016, STEM CELLS Transl. Med. 5, 1145-1161) using the skeletal muscle differentiation kit (Amsbio). hiPSCs were dissociated to single cells using Accutase and plated on Geltrex-coated 10 cm culture plates at a density of 200,000 cells per plate with SBMA hiPSCs in skeletal muscle induction media (SKM01, AMSBIO). Media changes were performed every second day until cells were confluent (˜7 days). The resulting myogenic precursor cells were then dissociated to single cells using Accutase and replated on Matrigel-coated 24-well tissue culture plate with 500 μL of cells at 35,000 cells per mL in skeletal myoblast media (SKM02, AMSBIO). Half media changes were performed every second day until myoblasts reached confluence (˜7 days). The media was then switched to myotube medium (SKM03, ASMBIO). Media changes every second day until myotube formation was confirmed by microscopy. Myotubes were treated on day 20 of differentiation (6 days' worth of SKM03 media) with compounds diluted in DMSO for a final DMSO concentration of 0.01% in SKM03 media. The cells were lysed 24 hours later in Pierce RIPA buffer (Cat. No. 89900, ThermoFisher) supplemented with 1× Halt protease inhibitor cocktail (Cat. No. 87786, ThermoFisher), 1 mM MgCl2, and 1 μL Benzonase Nuclease. AR protein was measured by capillary electrophoresis. […]

Chain of hERG (Q12809 whole entry): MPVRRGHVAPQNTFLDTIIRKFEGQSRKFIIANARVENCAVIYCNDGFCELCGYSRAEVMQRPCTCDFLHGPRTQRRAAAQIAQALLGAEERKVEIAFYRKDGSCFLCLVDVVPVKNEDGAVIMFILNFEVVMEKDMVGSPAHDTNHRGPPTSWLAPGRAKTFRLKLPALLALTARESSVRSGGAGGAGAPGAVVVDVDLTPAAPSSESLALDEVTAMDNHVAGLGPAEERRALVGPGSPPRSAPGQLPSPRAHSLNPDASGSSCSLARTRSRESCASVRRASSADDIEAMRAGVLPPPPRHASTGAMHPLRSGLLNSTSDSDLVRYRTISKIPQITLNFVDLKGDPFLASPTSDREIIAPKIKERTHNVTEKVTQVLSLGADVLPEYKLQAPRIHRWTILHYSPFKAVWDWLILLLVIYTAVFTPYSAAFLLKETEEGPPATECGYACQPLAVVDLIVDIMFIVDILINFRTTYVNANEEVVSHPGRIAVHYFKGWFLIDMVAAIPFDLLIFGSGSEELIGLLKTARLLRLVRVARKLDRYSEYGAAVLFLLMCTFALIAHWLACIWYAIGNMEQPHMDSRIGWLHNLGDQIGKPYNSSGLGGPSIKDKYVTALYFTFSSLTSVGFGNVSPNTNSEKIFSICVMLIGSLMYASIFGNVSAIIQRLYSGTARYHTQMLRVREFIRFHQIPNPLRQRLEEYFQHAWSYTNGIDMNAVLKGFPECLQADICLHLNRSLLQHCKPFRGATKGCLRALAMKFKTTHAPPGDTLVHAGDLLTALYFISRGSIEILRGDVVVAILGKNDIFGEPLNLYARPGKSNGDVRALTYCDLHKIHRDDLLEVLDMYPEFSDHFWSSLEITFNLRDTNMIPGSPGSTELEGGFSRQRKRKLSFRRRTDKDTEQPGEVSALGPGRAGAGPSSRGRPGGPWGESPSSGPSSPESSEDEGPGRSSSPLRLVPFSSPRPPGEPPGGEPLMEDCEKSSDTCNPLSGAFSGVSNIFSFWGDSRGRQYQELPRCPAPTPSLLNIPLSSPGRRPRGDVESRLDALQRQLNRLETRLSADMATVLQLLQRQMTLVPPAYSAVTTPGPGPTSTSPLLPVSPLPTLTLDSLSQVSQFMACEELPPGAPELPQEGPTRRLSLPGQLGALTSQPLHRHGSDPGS
T2 sequence (O43924 whole entry): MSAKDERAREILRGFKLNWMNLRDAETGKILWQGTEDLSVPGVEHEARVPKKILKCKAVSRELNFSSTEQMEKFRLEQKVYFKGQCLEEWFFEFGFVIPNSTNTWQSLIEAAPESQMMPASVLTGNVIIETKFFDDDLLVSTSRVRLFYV

SMILES: CC1(C)[C@H](NC(=O)c2cnc(N3CCC(CN4CCN(c5cc6c(cc5F)C(=O)N(C5CCC(=O)NC5=O)C6=O)CC4)CC3)nc2)C(C)(C)[C@H]1Oc1ccc(C#N)c(Cl)c1 (stereo partly shown) [Compound C]
- hepatocyte toxicity [3]: 50%

SMILES: CCN(CC1CCN(c2cnc(C(=O)N[C@H]3C(C)(C)[C@H](Oc4cc(C)c(C#N)c(C)c4)C3(C)C)cn2)CC1)[C@H]1C[C@H](Oc2ccc3c(c2)C(=O)N(C2CCC(=O)NC2=O)C3=O)C1 (stereo partly shown) [Compound D]
- hERG inhibition [4]: < 10 µM

Now from value to molecule, other results behind:

- agonism activity at Emax relative to R1881 [1]: > 40%
- EC50 ([1]; read-out: EC50, AR agonist activity): 37 nM
SMILES: Cc1cc(O[C@H]2C(C)(C)[C@H](NC(=O)c3cnc(N4CCC(CN(C(C)C)[C@H]5C[C@H](Oc6ccc7c(c6)C(=O)N(C6CCC(=O)NC6=O)C7=O)C5)CC4)nc3)C2(C)C)cc(C)c1C#N (stereo partly shown) [Compound B]
- mean Dmax for polyQ-AR in myotube nuclei ([2]; 24 hours treatment, nuclear compartment): increase in nuclear polyQ-AR
- total polyQ-AR signal in myotubes ([2]; data not shown): reduced the total polyQ-AR signal

- oral bioavailability [5]: poor oral bioavailability
SMILES: COc1cc(O[C@H]2CC[C@H](NC(=O)c3cnc(N4CCC(CN(C(C)C)[C@H]5C[C@H](Oc6ccc7c(c6)C(=O)N(C6CCC(=O)NC6=O)C7=O)C5)CC4)cn3)CC2)ccc1C#N (stereo partly shown) [Compound E]

- PDE6D as neosubstrate [7]: not a neosubstrate
SMILES: CC(C)N(CC1CCN(c2ncc(C(=O)N[C@H]3C(C)(C)[C@H](Oc4ccc(C#N)c(Cl)c4)C3(C)C)cn2)CC1)[C@H]1C[C@H](Oc2ccc3c(c2)C(=O)N(C2CCCN(C)C2=O)C3=O)C1 (stereo partly shown) [Compound F, reference compound]
- polyQ-AR degradation compared to control, global proteomics [6]: does not induce degradation; also recorded: does not degrade AR
- polyQ-AR degradation in SBMA hiPSC-myotubes [8]: did not induce polyQ-AR degradation

— patent US12496301B2, “Use of androgen receptor degrader for the treatment of spinal and bulbar muscular atrophy” (Arvinas Operations, Inc., priority 2023, dated 2025)
